Data on 4 compounds can be found in patent publication US9499534B2, “Thiazole-substituted aminopyrimidines as spleen tyrosine kinase inhibitors” (priority 2013, dated 2016).

Series [1] deals with recombinant human GST-SYK (Homo sapiens (Human), UniProt P43405). In words: Homogeneous Time-Resolved Fluorescence (HTRF) Assay for the Recombinant Human Syk Enzyme. It counts as biochemical. To be noted: GST-SYK 5 pM, ATP 25 μM, biotinylated substrate peptide 250 nM, HTRF signal. On the procedure:
Homogeneous Time-Resolved Fluorescence (HTRF) Assay for the Recombinant Human Syk Enzyme
A recombinant GST-hSYK fusion protein was used to measure potency of compounds to inhibit human Syk activity. The recombinant human GST-SYK (Carna Biosciences #08-176) (5 pM final concentration) was incubated with various concentrations of the inhibitor diluted in DMSO (0.1% final concentration) for 10 minutes at room temperature in 15 mM Tris-HCl (pH 7.5), 0.01% tween 20, 2 mM DTT in 384 well plate format. To initiate the reaction the biotinylated substrate peptide (250 nM final concentration) that contains the phosphorylation site for Syk was added with magnesium (5 mM final concentration) and ATP (25 μM final concentration). Final volume of the reaction was 10 μL. Phosphorylation of the peptide was allowed to proceed for 45′ at room temperature. To quench the reaction and detect the phosphorylated product, 2 nM of a Europium-anti-phosphotyrosine antibody (Perkin Elmer #AD0161) and 70 nM SA-APC (Perkin-Elmer #CR130-100) were added together in 15 mM Tris pH 7.5, 40 mM EDTA, 0.01% tween 20. Final volume of the quenching solution was 10 μL.
The resulting HTRF signal was measured after 30 minutes on an EnVision (Perkin-Elmer) reader using a time-resolved fluorescence protocol. Table A below lists activities as IC50 values (nM) for representative compounds of the invention.
A general note: TR-FRET usually uses a lanthanide donor and a delayed reading to cut background.

For the next series, the system named is PGD2. To be noted: dosed intranasally, phase I/II study, allergic rhinitis; cited from earlier work.
The conditions of series [2]: phase II clinical trial for allergic rhinitis; cited from earlier work.

With `OC1(c2ncc(-c3cc(Nc4nccc(C(F)(F)F)n4)cc(-c4nnn[nH]4)c3)s2)CCC1` [Example 1.4, 1-(5-(3-(1H-Tetrazol-5-yl)-5-((4-(trifluoromethyl)pyrimidin-2-yl)amino)phenyl)thiazol-2-yl)cyclobutanol], the IC50 (in general, the concentration that inhibits the measured activity by half) in series [1] was found to be 77.7 nM.
With `COc1cc(Nc2nccc(C(F)(F)F)n2)cc(-c2cnc([C@]3(O)CC[C@@H](C(=O)O)CC3)s2)c1` [Example 1.6, cis-4-Hydroxy-4-(5-(3-methoxy-5-((4-(trifluoromethyl)pyrimidine-2-yl)amino)phenyl)thiazol-2-yl)cyclohexanecarboxylic acid], in series [1], the IC50 stood at 1.29 nM.
Take `N#Cc1cc(Nc2nccc(C(F)(F)F)n2)cc(-c2cnc(C3(O)CCC(C(=O)O)CC3)s2)c1` (stereo not drawn) [Example 1.7, cis 4-[5-(3-cyano-5-{[4-(trifluoromethyl)pyrimidin-2-yl]amino}phenyl)-1,3-thiazol-2-yl]-4-hydroxycyclohexanecarboxylic acid]: the half-inhibitory concentration (IC50) in series [1] is 8.48 nM.
Consider `Oc1cccc(Nc2ncc(F)c(Nc3cccc(O)c3)n2)c1` [Example R112], for which, in the series on PGD2, the clinical safety result is reported as “safe across a range of indicators” and the “decrease in PGD2” value is given as “statistically significant decrease”. Also, the efficacy versus placebo result in series [2] is “lack of efficacy versus placebo”.
